Measurements taken from US20100119599A1 (ARCHER PHARMACEUTICALS, INC., priority 2006, published 2010).

Key:
[1] = test system: Aβ1-40; assay: Measurement of Aβ1-40 in culture medium of 7W WT APP751 CHO cells by ELISA; type: cell-based, Chinese hamster; conditions: CHO cells that overexpress APP751; zero = below the detection limit of the assay
Description: (§1) Chinese hamster ovary (CHO) cells, stably transfected with human APP751 (7W WT APP751 CHO cells) were used. See, e.g., Koo and Squazzo, J. Biol. Chem., 269(26): 17386-17389, 1994. The cells were maintained in DMEM medium supplemented with 10% fetal bovine serum and 1× mixture of penicillin/streptomycin/fungizone/glutamine mixture (Cambrex, Md.) geneticin as selecting agent in 75 cm^2 cell culture flasks. The 7W WT APP751 CHO cells were plated in 96-well cell culture plates in quadruplicate, containing 200 microliters of culture medium, for 18 hours at 37° C. and 5% CO2. All test compounds were placed in dimethyl sulfoxide (DMSO) before being added to the cultured confluent 7W WT APP751 CHO cells to a concentration of the test compound of 5 μM. The culture medium was collected and diluted before being assayed by ELISAs for Aβ1-40 at 10-fold dilution and Aβ1-42 at 2-fold dilution, respectively. Concentrations of Aβ1-40 and Aβ1-42, expressed in pg/ml, were determined using commercially available ELISAs (Biosource, Calif.) in a colorimetric assay using labeled antibodies detected spectrophotometrically. For compounds with an identification beginning “RI”, the compounds were tested at a concentration of 10 μM for 24 hours. Control cells were treated with DMSO containing no compound. The percentage reduction in levels of Aβ1-40 and Aβ1-42 as compared to control cells not exposed to the test compounds are reported for the compounds in Tables 1, 2, and 3, supra. An entry of “0” indicates no detectable amount of Aβ1-40 or Aβ1-42 according to the assay conditions. The data in Tables 1, 2, and 3 may be rounded to the nearest 0.1%.

[2] = test system: Aβ1-42; assay: Measurement of Aβ1-42 in culture medium of 7W WT APP751 CHO cells by ELISA; type: cell-based, Chinese hamster; conditions: CHO cells that overexpress APP751; zero = below the detection limit of the assay
Description: as §1
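Also: 5 µM test compound but RI-coded compounds at 10 µM for 24 hours.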

| Compound | Aβ1-40 (% of control) [1] | Aβ1-42 (% of control) [2] |
| --- | --- | --- |
| N#CC1=C(N)NC(SCC(N)=O)=C(C#N)C1c1ccccc1Br (stereo not shown) [RI_1] | 93.2 % of control | 75.4 % of control |
| N#CC1=C(N)NC(SCC(N)=O)=C(C#N)C1c1ccccc1F (stereo not shown) [RI_2] | 100.9 % of control | 44.4 % of control |
| N#CC1=C(N)NC(SCC(N)=O)=C(C#N)C1c1ccc(Cl)cc1 (stereo not shown) [RI_3] | 97.4 % of control | 51.2 % of control |
| N#CC1=C(N)NC(SCC(N)=O)=C(C#N)C1c1cccs1 (stereo not shown) [RI_4] | 92.2 % of control | 64.7 % of control |
| CSC1=C(C#N)C(c2ccccc2)C(C(=O)Nc2ccc(Cl)cc2)=C(C)N1 (stereo not shown) [RI_5] | 81.4 % of control | 82.2 % of control |
| CC1=C(C(=O)Nc2ccccc2)C(c2ccsc2)C(C#N)=C(SCC(=O)Nc2ccccc2)N1 (stereo not shown) [RI_6] | 77.7 % of control | 65.1 % of control |
| CC1=C(C(=O)Nc2ccccc2)C(c2cccs2)C(C#N)=C(SCC(=O)Nc2ccc(Oc3ccccc3)cc2)N1 (stereo not shown) [RI_8] | 46.1 % of control | 26.4 % of control |
| CCOc1ccc(NC(=O)CSC2=C(C#N)C(c3cccs3)C(C(=O)Nc3ccccc3)=C(C)N2)cc1 (stereo not shown) [RI_9] | 56.3 % of control | 27.6 % of control |
| CC1=C(C(=O)Nc2ccc(Cl)cc2)C(c2cccs2)C(C#N)=C(SCC(=O)Nc2cccc(C)c2)N1 (stereo not shown) [RI_10] | 78.8 % of control | 70.6 % of control |
| CC1=C(C(=O)Nc2ccccc2)C(c2cccs2)C(C#N)=C(SCC(=O)Nc2cc(C)cc(C)c2)N1 (stereo not shown) [RI_11] | 52.1 % of control | 35.8 % of control |
| CC1=C(C(=O)Nc2ccccc2)C(c2cccs2)C(C#N)=C(SCC(=O)Nc2ccccc2F)N1 (stereo not shown) [RI_12] | 68.4 % of control | 82.5 % of control |
| CC1=C(C(=O)Nc2ccccc2)C(c2cccs2)C(C#N)=C(SCC(=O)Nc2cccc(F)c2)N1 (stereo not shown) [RI_13] | 53.8 % of control | 41.3 % of control |
| CC1=C(C(=O)Nc2ccc(Cl)cc2)C(c2ccsc2)C(C#N)=C(SCC(=O)Nc2cccc(C)c2)N1 (stereo not shown) [RI_14] | 56.3 % of control | 64.1 % of control |
| COc1ccc(CCNC(=O)CSC2=C(C#N)C(c3cccs3)C(C(=O)Nc3ccccc3)=C(C)N2)cc1OC (stereo not shown) [RI_15] | 74.9 % of control | 41.2 % of control |
| CC1=C(C(=O)Nc2ccccc2)C(c2ccccc2)C(C#N)=C(SCC(=O)Nc2ccccc2C)N1 (stereo not shown) [RI_16] | 64.2 % of control | 105 % of control |
| CC1=C(C(=O)Nc2ccccc2)C(c2cccs2)C(C#N)=C(SCC(=O)NCCC(C)(C)C)N1 (stereo not shown) [RI_17] | 18.2 % of control | 24.1 % of control |
| COc1cc(CNC(=O)CSC2=C(C#N)C(c3cccs3)C(C(=O)Nc3ccccc3)=C(C)N2)cc(OC)c1OC (stereo not shown) [RI_18] | 49.2 % of control | 44.1 % of control |
| CC1=C(C(=O)Nc2ccccc2)C(c2cccs2)C(C#N)=C(SCC(=O)NCCc2ccc(Br)cc2)N1 (stereo not shown) [RI_19] | 35.4 % of control | 44.4 % of control |
| CC1=C(C(=O)Nc2ccccc2)C(c2cccs2)C(C#N)=C(SCC(=O)NCc2ccc(Br)cc2)N1 (stereo not shown) [RI_20] | 45.6 % of control | 41.9 % of control |
| CC1=C(C(=O)Nc2ccccc2)C(c2cccs2)C(C#N)=C(SCC(=O)NC2CCC(C)CC2)N1 (stereo not shown) [RI_21] | 18.7 % of control | 22.1 % of control |
| CC1=C(C(=O)Nc2ccccc2)C(c2cccs2)C(C#N)=C(SCC(=O)NCc2ccccc2)N1 (stereo not shown) [RI_22] | 60.9 % of control | 47.6 % of control |

| Compound | Aβ1-40 (% of control) [1] | Aβ1-42 (% of control) [2] |
| --- | --- | --- |
| CCCCNC(=O)CSC1=C(C#N)C(c2cccs2)C(C(=O)Nc2ccccc2)=C(C)N1 (stereo not shown) [RI_23] | 49.3 % of control | 35.9 % of control |
| CC1=C(C(=O)Nc2ccccc2)C(c2cccs2)C(C#N)=C(SCC(=O)NC2CCC2)N1 (stereo not shown) [RI_24] | 80.8 % of control | 44.1 % of control |
| CC1=C(C(=O)Nc2ccccc2)C(c2cccs2)C(C#N)=C(SCC(=O)NC2CCCCC2)N1 (stereo not shown) [RI_25] | 55.9 % of control | 36.5 % of control |
| CCCCCCNC(=O)CSC1=C(C#N)C(c2cccs2)C(C(=O)Nc2ccccc2)=C(C)N1 (stereo not shown) [RI_26] | 37.6 % of control | 26.7 % of control |
| CC1=C(C(=O)Nc2ccccc2)C(c2cccs2)C(C#N)=C(SCC(=O)NCCc2ccccc2)N1 (stereo not shown) [RI_27] | 34.4 % of control | 26.5 % of control |
| CC1=C(C(=O)Nc2ccccc2)C(c2cccs2)C(C#N)=C(S)N1 (stereo not shown) [RI_28] | 77.1 % of control | 68.5 % of control |
| CC1=C(C(=O)Nc2ccccc2)C(c2ccsc2)C(C#N)=C(S)N1 (stereo not shown) [RI_29] | 79.7 % of control | 100 % of control |
| CC1=C(C(N)=O)C(c2ccccc2)C(C#N)=C(SCC(=O)Nc2cccc(C)c2)N1 (stereo not shown) [RI_30] | 94.9 % of control | 48.2 % of control |
| CC1=C(C(=O)Nc2ccc(Cl)cc2)C(c2ccccc2C)C(C#N)=C(SCC(=O)Nc2cccc(C)c2)N1 (stereo not shown) [RI_31] | 53.9 % of control | 73.3 % of control |
| CC1=C(C(=O)Nc2ccccc2)C(c2cccs2)C(C#N)=C(SCC(=O)N2CCCCCCCCCCC2)N1 (stereo not shown) [RI_32] | 62.9 % of control | 62.8 % of control |
| CC1=C(C(=O)Nc2ccccc2)C(c2ccsc2)C(C#N)=C(SCC(=O)N2CCCCCCCCCCC2)N1 (stereo not shown) [RI_33] | 11.9 % of control | 13.7 % of control |
| CC1=C(C(=O)Nc2ccccc2)C(Cc2ccccc2)C(C#N)=C(SCC(=O)Nc2cccc(C)c2)N1 (stereo not shown) [RI_34] | 31.4 % of control | 26.1 % of control |
| CCCCCCNC(=O)CSC1=C(C#N)C(c2ccccc2)C(C(=O)Nc2ccc(Cl)cc2)=C(C)N1 (stereo not shown) [RI_35] | 55.4 % of control | 78.6 % of control |
| Cc1cccc(C(C)C)c1NC(=O)CSc1nc(C)c(C(=O)Nc2ccccc2)c(-c2cccs2)c1C#N [RI_36] | 35.9 % of control | 72.9 % of control |
| CC1=C(C(=O)Nc2ccc(Cl)cc2)C(c2ccsc2)C(C#N)=C(SCC(=O)Nc2ccc(C)c(Cl)c2)N1 (stereo not shown) [RI_37] | 64.4 % of control | 75.8 % of control |
| CC1=C(C(=O)Nc2ccccc2)C(c2cccs2)C(C#N)=C(SCC(=O)Nc2cccc(Cl)c2C)N1 (stereo not shown) [RI_38] | 62.5 % of control | 103.4 % of control |
| CC1=C(C(=O)Nc2ccccc2)C(c2ccsc2)C(C#N)=C(SCC(=O)Nc2cccc(C)c2)N1 (stereo not shown) [RI_39] | 72 % of control | 72 % of control |
| CC1=C(C(=O)Nc2ccc(Cl)cc2)C(c2ccccc2)C(C#N)=C(SCC(=O)Nc2ccccc2C)N1 (stereo not shown) [RI_40] | 25.7 % of control | 43.2 % of control |
| CC1=C(C(=O)Nc2ccc(Cl)cc2)C(c2ccccc2)C(C#N)=C(SCC(=O)Nc2ccc(C)cc2)N1 (stereo not shown) [RI_41] | 36.4 % of control | 30.7 % of control |
| CC1=C(C(=O)Nc2ccc(Cl)cc2)C(c2ccccc2)C(C#N)=C(SCC(=O)Nc2ccccc2)N1 (stereo not shown) [RI_42] | 27.2 % of control | 36.2 % of control |
